Assay results from patent US20260199484A1, “PROTAC DEGRADERS OF MLLT1 AND/OR MLLT3” (DARK BLUE THERAPEUTICS LTD, priority 2024, published 2026).

Experiments:
MV4-11 cells = test: MV4-11 cellular proliferative assay, Assay Format A (CellTiter-Glo, 120 h); format: cell-based; details: Homo sapiens, Assay method A, Table 3, read-out: MV4-11 antiproliferative IC50
How it was run: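 MV4-11 cells seeded at 50 cells/well and exposed for 120 h to compound (10 semi-log dilutions, top 30 μM) or DMSO. Viability by CellTiter-Glo luminescence, normalised to DMSO and reference-compound wells; AC50 from Hill fit.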

MLLT1 = molecular target: T1, MLLT1 (Homo sapiens, UniProt Q03111); test: MLLT1 HTRF IC50 determination assay (H3K9cro peptide displacement); format: binding
T1 sequence (Q03111 1-559): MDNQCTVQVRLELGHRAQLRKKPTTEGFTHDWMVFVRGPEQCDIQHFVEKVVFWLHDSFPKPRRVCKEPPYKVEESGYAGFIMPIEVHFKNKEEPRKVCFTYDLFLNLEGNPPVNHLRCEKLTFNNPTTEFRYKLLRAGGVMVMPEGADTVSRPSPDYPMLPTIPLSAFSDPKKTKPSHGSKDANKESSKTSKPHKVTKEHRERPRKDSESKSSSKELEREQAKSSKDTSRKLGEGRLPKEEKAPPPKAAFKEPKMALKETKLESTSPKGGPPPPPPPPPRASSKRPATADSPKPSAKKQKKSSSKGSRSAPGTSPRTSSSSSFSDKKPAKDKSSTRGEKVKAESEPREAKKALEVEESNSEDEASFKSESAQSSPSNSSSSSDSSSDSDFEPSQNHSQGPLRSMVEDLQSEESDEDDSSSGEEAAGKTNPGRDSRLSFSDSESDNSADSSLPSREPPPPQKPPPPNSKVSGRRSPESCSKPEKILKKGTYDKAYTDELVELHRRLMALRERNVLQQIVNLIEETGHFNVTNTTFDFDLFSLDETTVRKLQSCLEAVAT
Excerpt: (§1) This procedure is intended to measure the interaction between YEATS proteins and histone peptides modified by an appropriate epigenetic mark and can be used to assay compounds which bind to the YEATS proteins and inhibit this interaction. The assay uses 6His tagged MLLT1 or MLLT3 with an anti-6His antibody conjugated with Eu^3+ chelate (donor) and a biotinylated peptide with Streptavidin conjugated XL-665 (acceptor). When the donor and acceptor labels are in close proximity, by binding of the peptide by MLLT1 or MLLT3, the excitation of the donor (337 nm) triggers a Fluorescence Resonance Energy Transfer (FRET) to the acceptor which then fluoresces at specific wavelength (665 nm).
(§2) This step optimises the protein/peptide ratio that will be used in HTRF screening assay in order to allow the best signal-to-noise ratio. Each new purified protein should be titrate this way as the signal-to-noise ratio may differ from different protein batches. Displacement assay for MLLT1 and MLLT3 was performed by using H3K9 cro peptide (ARTKQTAR(Kcrot)STGGKAPRKQLYK(biotin)).
(§3) A serial dilution of 4× solution of biotinylated peptide was prepared in assay buffer (25 mM HEPES, 20 mM NaCl, 0.05% BSA, 0.05% Tween-20, pH 7.0) covering concentrations from 3.2 μM to 0.2 nM. and 5 μL of each dilution were transferred horizontally to fill 15 columns of a white ProxiPlate-384 Plus shallow well Microplate (Perkin Elmer, USA). A sixteenth column of buffer was also included for a background reference. In parallel, a serial dilution of the 6His-tag protein of interest was prepared in the same way and 5 μL of each dilution were vertically added to the wells containing the peptide dilutions. Buffer has been transferred to the last line of the plate in order to make a no-protein reference. The microplate has been covered and incubated 1 hour at room temperature. A 2× detection mix was prepared in assay buffer by diluting streptavidin conjugated with XL-665 (610SAXLB, Cisbio Bioassays, France) to 1/2000 and anti-6His(Eu) chelate (LANCE Eu-W1024 Anti-6×His, ADO111, Perkinelmer LAS (UK)LTD) to 1/20000, 10 μL were added to each well and the plate has been incubated for 1 to 24 hours at room temperature in the dark. The plate was read in the Pherastar using the HTRF module with dual emission protocol (A=ex. 320 nm em. 665 nm, B=ex. 320 nm em. 620 nm).
(§4) The HTRF ratio was calculated as channel A/B*10000 and the specific signal as follow: specific signal=HTRF Ratio Positive signal—HTRF Ratio Negative signal (without protein). The concentrations of protein and peptide that allow the maximum specific signal without saturation were selected to perform HRTF screening assay described below.
(§5) The compounds were dissolved in DMSO at a stock concentration of 10 mM and dispensed into microplate using the Echo acoustic liquid handler (Labcyte, Beckman Coulter, USA). The assay covers a window of compound concentrations from 20 μM to 20 nM spread in 11 data points in duplicate. Solvent and compound controls were added to each plate in order to calculate the background signal.
(§6) Ten microliters of 2× mix of 6His-protein and biotinylated peptide, the concentrations were determined above, were added to the dispensed compounds and incubated for one hour at room temperature in the dark. Ten microliters of the 2× detection mix was added to each well and the plate was incubated for another hour at room temperature in the dark and the plate was read in order to calculate the HTRF specific signal. The % inhibition values as follows:
(§7) The IC50 values were determined by plotting % inhibition vs compound concentration and fitting the data to a non-linear sigmoidal dose response equation (4 parameter fit): […]

MLLT3 = molecular target: T2, MLLT3 (Homo sapiens, UniProt P42568); test: MLLT3 HTRF IC50 determination assay (H3K9cro peptide displacement); format: binding
T2 sequence (P42568 1-568): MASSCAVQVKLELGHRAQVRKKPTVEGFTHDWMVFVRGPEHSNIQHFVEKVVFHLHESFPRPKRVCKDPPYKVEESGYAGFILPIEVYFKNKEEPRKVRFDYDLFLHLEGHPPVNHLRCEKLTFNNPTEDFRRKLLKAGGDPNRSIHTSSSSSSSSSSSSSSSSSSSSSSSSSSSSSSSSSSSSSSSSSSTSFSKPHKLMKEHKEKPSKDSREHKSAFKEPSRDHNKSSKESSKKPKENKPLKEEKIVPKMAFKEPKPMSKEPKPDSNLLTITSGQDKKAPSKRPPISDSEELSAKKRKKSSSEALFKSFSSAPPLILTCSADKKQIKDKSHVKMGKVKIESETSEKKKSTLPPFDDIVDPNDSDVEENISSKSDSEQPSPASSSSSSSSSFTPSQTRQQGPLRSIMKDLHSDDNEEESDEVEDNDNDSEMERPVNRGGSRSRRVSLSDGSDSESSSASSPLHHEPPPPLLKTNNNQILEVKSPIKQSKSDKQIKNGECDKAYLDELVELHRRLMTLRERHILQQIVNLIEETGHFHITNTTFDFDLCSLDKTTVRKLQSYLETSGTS
Excerpt: as §1, §2, §3, §4, §5, §6, §7

Compound	IC50 (MV4-11 cells) [nM]	IC50 (MLLT1; Table 5) [nM]	IC50 (MLLT1; category, Table 4) [nM]	IC50 (MLLT3; Table 5) [nM]	IC50 (MLLT3; category, Table 4) [nM]
Cc1nn(C)c2cc(C(=O)Nc3cc4[nH]c([C@H]5CCCN5C)cc4cn3)ccc12 (single isomer, unassigned) [Example 76]	40	43	≤ 100	81	≤ 100
Cc1nc(NC(=O)c2ccc3c(C)nn(C)c3c2)cc2[nH]c(C3CCCN3C)cc12 (single isomer, unassigned) [Example 92, 1,3-dimethyl-N-{4-methyl-2-[(rel-2R)-1-methylpyrrolidin-2-yl]-1H-pyrrolo[3,2-c]pyridin-6-yl}indazole-6-carboxamide]		37	≤ 100	63	≤ 100
Cc1nn(C)c2cc(C(=O)Nc3cc4[nH]c(C5CCCN5C)c(F)c4cn3)ccc12 (single isomer, unassigned) [Example 88, N-{3-fluoro-2-[(rel-2R)-1-methylpyrrolidin-2-yl]-1H-pyrrolo[3,2-c]pyridin-6-yl}-1,3-dimethylindazole-6-carboxamide]		17	≤ 100	37	≤ 100
Cc1c(C2CCCN2C)[nH]c2cc(NC(=O)c3ccc4c(C)nn(C)c4c3)ncc12 (single isomer, unassigned) [Example 90, 1,3-dimethyl-N-{3-methyl-2-[(rel-2R)-1-methylpyrrolidin-2-yl]-1H-pyrrolo[3,2-c]pyridin-6-yl}indazole-6-carboxamide]		12	≤ 100	45	≤ 100
Cc1nn(C)c2cc(C(=O)Nc3cc4[nH]c(C5CCCN5C)c(F)c4cn3)ccc12 (single isomer, unassigned) [Example 89, N-{3-fluoro-2-[(rel-2S)-1-methylpyrrolidin-2-yl]-1H-pyrrolo[3,2-c]pyridin-6-yl}-1,3-dimethylindazole-6-carboxamide]			100 to 1000		1000 to 10000
Cc1nn(C)c2cc(C(=O)Nc3cc4[nH]c([C@H]5CCCN5C)c(Cl)c4cn3)ccc12 [Example 80, N-{3-chloro-2-[(2R)-1-methylpyrrolidin-2-yl]-1H-pyrrolo[3,2-c]pyridin-6-yl}-1,3-dimethylindazole-6-carboxamide]		6	≤ 100	22	≤ 100
Cc1nn(C)c2cc(C(=O)Nc3cc4[nH]c([C@@H]5CCCN5C)c(Cl)c4cn3)ccc12 [Example 81, N-{3-chloro-2-[(2S)-1-methylpyrrolidin-2-yl]-1H-pyrrolo[3,2-c]pyridin-6-yl}-1,3-dimethylindazole-6-carboxamide]			100 to 1000		1000 to 10000
Cc1nn(C)c2cc(C(=O)Nc3cc4[nH]c([C@@H]5CCCN5C)cc4cn3)ccc12 (single isomer, unassigned) [Example 77]			100 to 1000		1000 to 10000
CN1CCCC1c1cc2cnc(NC(=O)c3ccc4c(cnn4C)c3)cc2[nH]1 (single isomer, unassigned) [Example 79, 1-methyl-N-{2-[(rel-2R)-1-methylpyrrolidin-2-yl]-1H-pyrrolo[3,2-c]pyridin-6-yl}indazole-5-carboxamide]			≤ 100		≤ 100
CN1CCCC1c1cc2cnc(NC(=O)c3ccc4c(cnn4C)c3)cc2[nH]1 (single isomer, unassigned) [Example 78, 1-methyl-N-{2-[(rel-2S)-1-methylpyrrolidin-2-yl]-1H-pyrrolo[3,2-c]pyridin-6-yl}indazole-5-carboxamide]			1000 to 10000		1000 to 10000
CN1CCCC1c1[nH]c2cc(NC(=O)c3ccc4c(cnn4C)c3)ncc2c1F (single isomer, unassigned) [Example 86, N-{3-fluoro-2-[(rel-2S)-1-methylpyrrolidin-2-yl]-1H-pyrrolo[3,2-c]pyridin-6-yl}-1-methylindazole-5-carboxamide]			1000 to 10000		1000 to 10000
CCN1CCCC1c1cc2cnc(NC(=O)c3ccc4c(C)nn(C)c4c3)cc2[nH]1 (single isomer, unassigned) [Example 84, N-{2-[(rel-2R)-1-ethylpyrrolidin-2-yl]-1H-pyrrolo[3,2-c]pyridin-6-yl}-1,3-dimethylindazole-6-carboxamide]			100 to 1000		100 to 1000
